Experimental data published in patent US20250346845A1, “CELL-[…]” (TOPPAN HOLDINGS INC., priority 2023, published 2025).

What was measured:
Format in all cases: cell-based, human
Conditions in all cases: drug added day 4, read day 7, general-purpose medium
HT29 cells [1] = assay: Anti-cancer drug evaluation, HT29 cells cultured using stromal stamp, ATP assay
Protocol: HT29 (ATCC, HTB-38), a human colon adenocarcinoma cell line, was seeded in the third vessel (24-well plate) in Table 3 above at 1×10^3 cells/well. The stromal stamp prepared in Example 1 was then placed on each well.
(§1) On the fourth day after the start of the culture, an anti-cancer drug SN-38 (Selleck, S4908) was added to the medium in each well at a concentration of 0, 0.01, 0.1, 1 or 10 μM. On the seventh day after the start of culture, the stromal stamps were removed and the number of HT29 cells was counted by ATP assay. The cell viability was calculated using the following formula (2) to evaluate the drug efficacy.

HT29 cells [2] = assay: Anti-cancer drug evaluation, HT29 cells, 2D culture method, ATP assay
Protocol: as §1, with “the” for “the stromal stamps were removed and the”, “above” for “following”

HT29 cells [3] = assay: Anti-cancer drug evaluation, HT29 cells on stromal cell layer, 3D culture method, EpCAM immunofluorescence
Protocol: 2.0×10^6 NHDFs and 3.0×10^4 HUVECs were suspended in an equal volume mixture of 150 μL of 0.2 mg/mL heparin/50 mM Tris-HCl buffer (pH 7.4) and 150 μL of 0.2 mg/mL collagen/5 mM acetate solution (pH 3.7). The resulting mixture was centrifuged at 1,000×g for 1 minute at room temperature to obtain a viscous mass. The obtained viscous mass was suspended in DMEM containing 10% FBS. The entire suspension was seeded in a 24-well Transwell culture insert and centrifuged at 400×g (gravitational acceleration) at room temperature for 1 minute. As a result, a cell layer (i.e., a cell layer containing cells forming the stroma) was formed on the membrane of the Transwell culture insert.
Subsequently, HT29 cells were seeded on the cell layer at 1×10^3 cells/well and cultured in the general-purpose medium shown in Table 4 above. On the fourth day after the start of the culture, an anti-cancer drug SN-38 (Selleck, S4908) was added to the medium in each well at a concentration of 0, 0.01, 0.1, 1 or 10 μM.
On the seventh day after the start of culture, the cells were fixed and stained for EpCAM with immunofluorescence staining, and the stained cells were counted as HT29 cells. More specifically, the area of fluorescence emission from cancer cells was calculated using a microscope system (Operetta CLS, PerkinElmer) in the fluorescence mode (fluorescence: Alexa 647). The cell viability was calculated using the following formula (3) to evaluate the drug efficacy.

CCc1c2c(nc3ccc(O)cc13)-c1cc3c(c(=O)n1C2)COC(=O)[C@]3(O)CC [SN-38]
Cell viability (%) (HT29 cells [1]; 0.01 μM): 103.3 ± 14.5% | Cell viability (%) (HT29 cells [1]; 0.1 μM): 72.87 ± 14.57% | Cell viability (%) (HT29 cells [1]; 1 μM): 49.3 ± 13.05% | Cell viability (%) (HT29 cells [1]; 10 μM): 36.5 ± 10.24% | Cell viability (%) (HT29 cells [2]; 0.01 μM): 78.3 ± 9.45% | Cell viability (%) (HT29 cells [2]; 0.1 μM): 54.3 ± 5.45% | Cell viability (%) (HT29 cells [2]; 1 μM): 35 ± 3.24% | Cell viability (%) (HT29 cells [2]; 10 μM): 21.3 ± 4.23% | Cell viability (%) (HT29 cells [3]; 0.01 μM): 97.8 ± 20.04% | Cell viability (%) (HT29 cells [3]; 0.1 μM): 72.87 ± 14.57% | Cell viability (%) (HT29 cells [3]; 1 μM): 54.21 ± 13.05% | Cell viability (%) (HT29 cells [3]; 10 μM): 34.2 ± 9.47%
